Measured values from US8642808B2, “Bis-aryl sulfonamides” (ChemoCentryx, Inc., priority 2002, dated 2014).

Columns and labels:
CCR9 = molecular target: T1, CCR9 (Homo sapiens, UniProt P51686); assay: chemotaxis (conventional migration) assay and/or calcium mobilization (calcium flux) assay, TECK-stimulated MOLT-4 cells; type: cell-based; conditions: TECK-induced migration and/or calcium signal, read-out: activity (IC50) in either or both of the chemotaxis assay and calcium mobilization assays
T1 construct: CCR9-expressing cells (such as a T cell line MOLT-4 cells); host or cells: MOLT-4
T1 sequence (P51686 1-369): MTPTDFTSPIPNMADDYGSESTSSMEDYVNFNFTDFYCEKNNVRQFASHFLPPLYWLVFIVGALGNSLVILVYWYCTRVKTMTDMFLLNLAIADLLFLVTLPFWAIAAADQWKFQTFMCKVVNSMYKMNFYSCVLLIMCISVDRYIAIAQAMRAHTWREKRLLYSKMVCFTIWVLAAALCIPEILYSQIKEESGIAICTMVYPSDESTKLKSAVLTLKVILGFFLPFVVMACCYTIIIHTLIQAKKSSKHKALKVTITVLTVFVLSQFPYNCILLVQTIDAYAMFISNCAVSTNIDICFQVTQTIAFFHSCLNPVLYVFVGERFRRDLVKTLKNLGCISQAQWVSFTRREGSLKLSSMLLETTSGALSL
Description: MOLT-4 cells were obtained from the American Type Culture Collection (Manassas, Va.) and cultured in RPMI tissue culture medium supplemented with 10% fetal calf serum (FCS) in a humidified 5% CO2 incubator at 37° C. Recombinant human chemokine protein TECK was obtained from R&D Systems (Minneapolis, Minn.). ChemoTX® chemotaxis microchambers were purchased from Neuro Probe (Gaithersburg, Md.). CyQUANT® cell proliferation kits were purchased from Molecular Probes (Eugene, Oreg.). Calcium indicator dye Fluo-4 AM was purchased from Molecular Devices (Mountain View, Calif.).
Conventional migration assay was used to determine the efficacy of potential receptor antagonists in blocking migration mediated through CCR9. This assay was routinely performed using the ChemoTX® microchamber system with a 5-μm pore-sized polycarbonate membrane. To begin such an assay, MOLT-4 cells were harvested by centrifugation of cell suspension at 1000 PRM on a GS-6R Beckman centrifuge. The cell pellet was resuspended in chemotaxis buffer (HBSS with 0.1% BSA) at 5×10^6 cells/mL. Test compounds at desired concentrations were prepared from 10 mM stock solutions by serial dilutions in chemotaxis buffer. An equal volume of cells and compounds were mixed and incubated at room temperature for 15 minutes. Afterwards, 20 μL of the mixture was transferred onto the porous membrane of a migration microchamber, with 29 μL of 50 nM chemokine TECK protein placed at the lower chamber. Following a 150-minute incubation at 37° C., during which cells migrated against the chemokine gradient, the assay was terminated by removing the cell drops from atop the filter. To quantify cells migrated across the membrane, 5 μL of 7X CyQUANT® solution was added to each well in the lower chamber, and the fluorescence signal measured on a Spectrafluor Plus fluorescence plate reader (TECAN, Durham, N.C.). The degree of inhibition was determined by comparing migration signals between compound-treated and untreated cells. IC50 calculation was further performed by non-linear squares regression analysis using Graphpad Prism (Graphpad Software, San Diego, Calif.).
Calcium flux assay measures an increase in intracellular calcium following ligand-induced receptor activation. In the screen of CCR9 antagonists, it was used as a secondary assay carried out on a FLIPR® machine (Molecular Devices, Mountain View, Calif.). To begin an assay, MOLT-4 cells were harvested by centrifugation of cell suspension, and resuspended to 1.5×10^6 cells/mL in HBSS (with 1% fetal calf serum). Cells were then labeled with a calcium indicator dye Fluo-4 AM for 45 minutes at 37° C. with gentle shaking. Following incubation, cells were pelletted, washed once with HBSS and resuspended in the same buffer at a density of 1.6×10^6 cells/mL. One hundred microliters of labeled cells were mixed with […] of test compound at the appropriate concentrations on an assay plate. Chemokine protein TECK was added at a final concentration of 25 nM to activate the receptor. The degree of inhibition was determined by comparing calcium signals between compound-treated and untreated cells. IC50 calculations were further performed by non-linear squares regression analysis using Graphpad Prism (Graphpad Software, San Diego, Calif.).
In the table below, structures and activity are provided for representative compounds described herein. Activity is provided as follows for either or both of the chemotaxis assay and/or calcium mobilization assays, described above: + 1000 nM<IC50<10000 nM; ++, 100 nM<IC50<1000 nM; and +++, IC50<100 nM.

MDR1α-knockout mice = assay: in vivo efficacy study in MDR1α-knockout mice (spontaneous colitis, delay of disease onset); conditions: female MDR1α-knockout mice, 50 mg/kg twice a day intraperitoneal
From the text: The MDR1α-knockout mice, which lack the P-glycoprotein gene, spontaneously develop colitis under specific pathogen-free condition. The pathology in these animals has been characterized as Th1-type T cell-mediated inflammation similar to ulcerative colitis in humans. Disease normally begins to develop at around 8-10 weeks after birth. But the ages at which disease emerges and the ultimate penetrance level often vary considerably among different animal facilities.
In a study using the MDR1α-knockout mice, the known compound shown below was tested for its ability to delay disease onset during a short treatment regimen.
This compound is structurally similar to the claimed modulators (I) of the present invention. Female mice (n=15) were dosed with 50 mg/kg twice a day by intraperitonial injection, starting at age 13 weeks for 14 consecutive days. The study was terminated when the mice reached age 17 weeks at which point the disease penetrance level measured by diarrhea incidence reached 55%. […] This protection extended one to two weeks after treatment stopped (FIG. 1).

Compound	IC50 (CCR9) [µM]	other results
COC(=O)CCc1ccc(S(=O)(=O)Nc2ccc(Cl)cc2C(=O)c2ccccc2)cc1	< 0.1	–
CC(C)(C)c1ccc(S(=O)(=O)Nc2ccc(Br)cc2C(=O)c2ccccc2)cc1	< 0.1	–
CC(=O)c1ccc(S(=O)(=O)Nc2ccc(Cl)cc2C(=O)c2ccccc2)cc1	< 0.1	–
CCC(C)(C)c1ccc(S(=O)(=O)Nc2ccc(Cl)cc2C(=O)c2ccccc2)cc1	< 0.1	–
CCCCc1ccc(S(=O)(=O)Nc2ccc(Cl)cc2C(=O)c2ccccc2)cc1	0.1 to 1	–
O=C(c1ccccc1)c1cc(Cl)ccc1NS(=O)(=O)c1ccc(-c2cccs2)cc1	0.1 to 1	–
O=C(c1ccccc1)c1cc(Cl)ccc1NS(=O)(=O)c1ccc(Nc2cccnc2)cc1	0.1 to 1	–
CC(C)(C)c1ccc(S(=O)(=O)Nc2ccc(Cl)cc2C(=O)c2ccc(F)cc2)cc1	0.1 to 1	–
O=C(c1ccccc1)c1cc(Cl)ccc1NS(=O)(=O)c1cccc(F)c1	0.1 to 1	–
O=C(c1ccccc1)c1cc(Cl)ccc1NS(=O)(=O)c1ccc(Br)cc1	0.1 to 1	–
N#Cc1cccc(S(=O)(=O)Nc2ccc(Cl)cc2C(=O)c2ccccc2)c1	0.1 to 1	–
CC(C)c1ccc(S(=O)(=O)Nc2ccc(Cl)cc2C(=O)c2ccccc2)cc1	0.1 to 1	–
O=C(c1ccccc1)c1cc(Cl)ccc1NS(=O)(=O)c1ccc(C#Cc2ccccc2)cc1	0.1 to 1	–
O=C(c1ccccc1)c1cc(Cl)ccc1NS(=O)(=O)c1ccc2c(c1)CCO2	0.1 to 1	–
CC(=O)Nc1ccc(S(=O)(=O)Nc2ccc(Cl)cc2C(=O)c2ccccc2)cc1	0.1 to 1	–
COc1ccc(S(=O)(=O)Nc2cc(Br)ccc2C(=O)c2ccccc2)cc1	0.1 to 1	–

Compound	IC50 (CCR9) [µM]	other results
O=C(c1ccccc1)c1cc(Cl)ccc1NS(=O)(=O)c1ccc(F)cc1	0.1 to 1	–
CC(=O)Nc1ccc(S(=O)(=O)Nc2ccc(Cl)cc2C(=O)c2ccccc2)cc1Cl	0.1 to 1	–
O=C(c1ccccc1)c1cc(Cl)ccc1NS(=O)(=O)c1ccc(-n2cccn2)cc1	0.1 to 1	–
N#Cc1ccc(S(=O)(=O)Nc2ccc(Cl)cc2C(=O)c2ccccc2)cc1	0.1 to 1	–
CCCCOc1ccc(S(=O)(=O)Nc2ccc(Cl)cc2C(=O)c2ccccc2)cc1	1 to 10	–
O=C(c1ccccc1)c1cc(Cl)ccc1NS(=O)(=O)c1ccccc1F	1 to 10	–
O=C(c1ccccc1)c1cc(Cl)ccc1NS(=O)(=O)c1ccc(Cl)cc1Cl	1 to 10	–
COc1ccc(-c2ccc(S(=O)(=O)Nc3ccc(Cl)cc3C(=O)c3ccccc3)cc2)cc1	1 to 10	–
O=C(c1ccccc1)c1cc(Cl)ccc1NS(=O)(=O)c1ccc(Cl)c(Cl)c1	1 to 10	–
COc1ccc(S(=O)(=O)Nc2ccc(Cl)cc2C(=O)c2ccccc2F)cc1	1 to 10	–
COc1ccc(S(=O)(=O)Nc2ccc(OC)cc2C(=O)c2ccccc2)cc1	1 to 10	–
COc1cccc(S(=O)(=O)Nc2ccc(Cl)cc2C(=O)c2ccccc2)c1	1 to 10	–
COc1ccc(OC)c(S(=O)(=O)Nc2ccc(Cl)cc2C(=O)c2ccccc2)c1	1 to 10	–
O=C(c1ccccc1)c1cc(Cl)ccc1NS(=O)(=O)c1cccc(C(F)(F)F)c1	1 to 10	–
COc1ccc(S(=O)(=O)Nc2ccc(Cl)cc2C(=O)c2ccccc2)cc1 [drawing 79]	–	duration of protection after treatment stopped (MDR1α-knockout mice; 14 consecutive days): one to two; tolerability (MDR1α-knockout mice; 14 consecutive days from age 13 weeks): well tolerated; onset of IBD symptoms (diarrhea incidence) (MDR1α-knockout mice; 14 consecutive days from age 13 weeks, compared with vehicle): significant delay in the onset of IBD symptoms
COc1ccc(S(=O)(=O)Nc2ccc(Cl)cc2C(=O)c2ccccc2)cc1 [drawing 93]	< 0.1	–

Further lines, with some results ahead:

IC50 (CCR9) [µM]	Compound	other results
< 0.1	CC(C)(C)c1ccc(S(=O)(=O)Nc2ccc(Cl)cc2C(=O)c2ccccc2)cc1	–
< 0.1	COc1ccc(S(=O)(=O)Nc2ccc(Br)cc2C(=O)c2ccccc2)cc1	–
< 0.1	CC(C)(C)c1ccc(S(=O)(=O)Nc2cc(Cl)ccc2C(=O)c2ccccc2)cc1	–
< 0.1	COc1ccc(S(=O)(=O)Nc2ccc(F)cc2C(=O)c2ccccc2)cc1	–
< 0.1	CS(=O)(=O)c1ccc(S(=O)(=O)Nc2ccc(Cl)cc2C(=O)c2ccccc2)cc1	–
< 0.1	O=C(c1ccccc1)c1cc(Cl)ccc1NS(=O)(=O)c1ccc(-c2cnco2)cc1	–
< 0.1	C=Cc1ccc(S(=O)(=O)Nc2ccc(Cl)cc2C(=O)c2ccccc2)cc1	–
< 0.1	O=C(c1ccccc1)c1cc(Cl)ccc1NS(=O)(=O)c1ccc(I)cc1	–
< 0.1	CCc1ccc(S(=O)(=O)Nc2ccc(Br)cc2C(=O)c2ccccc2)cc1	–
< 0.1	O=C(c1ccccc1)c1cc(Cl)ccc1NS(=O)(=O)c1ccc(C(F)(F)F)cc1	–
< 0.1	O=C(c1ccccc1)c1cc(Br)ccc1NS(=O)(=O)c1ccc(-c2cocn2)cc1	–
< 0.1	CCc1ccc(S(=O)(=O)Nc2ccc(Cl)cc2C(=O)c2ccccc2)cc1	–
< 0.1	CC(C)Oc1ccc(S(=O)(=O)Nc2ccc(Cl)cc2C(=O)c2ccccc2)cc1	–
< 0.1	CC(=O)c1ccc(S(=O)(=O)Nc2ccc(Br)cc2C(=O)c2ccccc2)cc1	–
< 0.1	O=C(c1ccccc1)c1cc(Cl)ccc1NS(=O)(=O)c1ccc(OC(F)(F)F)cc1	–
